Results published in ChEMBL document CHEMBL3826929, “Discovery and Preclinical Evaluation of BMS-711939, an Oxybenzylglycine Based PPARα Selective Agonist” (ACS Med Chem Lett, 2016).

Legend:
[1] = Plasma clearance in cynomolgus monkey at 1 mg/kg, iv; type: ADME, organism-based, Macaca fascicularis
[2] = AUC (0 to 8 hrs) in Balb/c mouse at 10 mg/kg, po; type: ADME, organism-based; set-up: dose 10 mg/kg, time < 8 hr, route oral; conditions: in vivo
[3] = Half life in Balb/c mouse at 5 mg/kg, iv; type: ADME, organism-based; conditions: in vivo
Mus musculus [4] = assay: Increase in HDL cholesterol level in transgenic mouse expressing human ApoA1 at 3 mg/kg administered qd through oral gavage measured after 10 days relative to vehicle control; type: functional
Salmonella typhimurium = assay: Genotoxicity in Salmonella typhimurium TA98 up to 5000 ug by Ames test; type: toxicity, organism-based; conditions: salmonella enterica subsp. enterica serovar typhimurium
[5] = Cardiovascular toxicity in purkinje fiber (unknown origin) assessed as change in action potential duration at 90% repolarization at 30 uM
[6] = Cmax in Balb/c mouse at 10 mg/kg, po; type: ADME, organism-based; set-up: dose 10 mg/kg, route oral; conditions: in vivo
Syrian golden hamster [7] = assay: Decrease in liver triglyceride level in high fat-diet fed syrian golden hamster model of dyslipidemia at 10 mg/kg administered qd through oral gavage measured after 21 days by FPLC analysis relative to control; type: functional, Mesocricetus auratus; set-up: scale not given: the % may be the effect or the level left
Syrian golden hamster [8] = assay: Decrease in liver triglyceride level in high fat-diet fed syrian golden hamster model of dyslipidemia at 3 mg/kg administered qd through oral gavage measured after 21 days by FPLC analysis relative to control; type: functional, Mesocricetus auratus; set-up: scale not given: the % may be the effect or the level left
[9] = Half life in cynomolgus monkey at 1 mg/kg, iv; type: ADME, organism-based, Macaca fascicularis; conditions: in vivo
[10] = Oral bioavailability in Balb/c mouse at 10 mg/kg; type: ADME, organism-based; conditions: in vivo
Syrian golden hamster [11] = assay: Decrease in plasma triglyceride level in high fat-diet fed syrian golden hamster model of dyslipidemia at 3 mg/kg administered qd through oral gavage measured after 21 days by FPLC analysis relative to control; type: functional, Mesocricetus auratus; set-up: scale not given: the % may be the effect or the level left
[12] = Half life in dog at 1 mg/kg, iv; type: ADME, organism-based, Canis lupus familiaris; conditions: in vivo
[13] = Oral bioavailability in dog at 2 mg/kg; type: ADME, organism-based, Canis lupus familiaris; conditions: in vivo
Mus musculus [14] = assay: Increase in ApoA1 level in transgenic mouse expressing human ApoA1 at 50 mg/kg administered qd through oral gavage measured after 10 days relative to vehicle-treated control; type: functional
HEK293 = assay: Selectivity ratio of EC50 for Gal4-tagged human PPAR-gamma expressed in HEK cells to EC50 for Gal4-tagged human PPAR-alpha expressed in HEK cells; type: cell-based
Syrian golden hamster [15] = assay: Decrease in liver triglyceride level in high fat-diet fed syrian golden hamster model of dyslipidemia administered qd through oral gavage measured after 21 days by FPLC analysis; type: functional, organism-based; conditions: Mesocricetus auratus
Homo sapiens = species on record: Homo sapiens; assay: Inhibition of sodium channel (unknown origin) assessed as channel block at 10 uM and 4 Hz by electrophysiological method
[16] = Cmax in Sprague-Dawley rat at 8 mg/kg, po; type: ADME, organism-based; set-up: dose 8 mg/kg, route oral; conditions: in vivo
[17] = Protein binding in dog plasma; type: ADME, cell-free, Canis lupus familiaris; conditions: read-out: PPB (converted)
[18] = AUC (0 to 8 hrs) in cynomolgus monkey at 1 mg/kg, iv; type: ADME, organism-based, Macaca fascicularis; set-up: time < 8 hr, dose 1 mg/kg, route intravenous; conditions: in vivo
[19] = Cmax in cynomolgus monkey at 2 mg/kg, po; type: ADME, organism-based, Macaca fascicularis; set-up: dose 2 mg/kg, route oral; conditions: in vivo
Cytochrome P450 2C19 = Cytochrome P450 2C19 (Homo sapiens, UniProt P33261); assay: Inhibition of CYP2C19 (unknown origin); type: ADME
Sequence of Cytochrome P450 2C19 (P33261 whole entry): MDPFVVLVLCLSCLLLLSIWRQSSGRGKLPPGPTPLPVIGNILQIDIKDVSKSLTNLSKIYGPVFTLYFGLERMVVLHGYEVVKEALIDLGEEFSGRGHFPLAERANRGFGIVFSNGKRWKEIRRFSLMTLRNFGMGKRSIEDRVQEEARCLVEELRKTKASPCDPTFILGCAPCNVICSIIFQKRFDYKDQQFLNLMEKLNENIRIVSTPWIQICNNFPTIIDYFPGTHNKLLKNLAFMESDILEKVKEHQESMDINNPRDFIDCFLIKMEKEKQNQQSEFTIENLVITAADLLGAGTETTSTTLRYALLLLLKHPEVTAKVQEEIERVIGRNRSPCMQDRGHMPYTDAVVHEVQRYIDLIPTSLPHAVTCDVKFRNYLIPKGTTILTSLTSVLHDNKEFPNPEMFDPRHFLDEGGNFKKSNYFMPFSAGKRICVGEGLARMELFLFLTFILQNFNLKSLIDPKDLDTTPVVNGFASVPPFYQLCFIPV

[20] = AUC (0 to 8 hrs) in dog at 2 mg/kg, po; type: ADME, organism-based, Canis lupus familiaris; set-up: dose 2 mg/kg, time < 8 hr, route oral; conditions: in vivo
Cytochrome P450 2C9 = Cytochrome P450 2C9 (Homo sapiens, UniProt P11712); assay: Inhibition of CYP2C9 in human TC5 cells; type: ADME, cell-based
Sequence of Cytochrome P450 2C9 (P11712 whole entry): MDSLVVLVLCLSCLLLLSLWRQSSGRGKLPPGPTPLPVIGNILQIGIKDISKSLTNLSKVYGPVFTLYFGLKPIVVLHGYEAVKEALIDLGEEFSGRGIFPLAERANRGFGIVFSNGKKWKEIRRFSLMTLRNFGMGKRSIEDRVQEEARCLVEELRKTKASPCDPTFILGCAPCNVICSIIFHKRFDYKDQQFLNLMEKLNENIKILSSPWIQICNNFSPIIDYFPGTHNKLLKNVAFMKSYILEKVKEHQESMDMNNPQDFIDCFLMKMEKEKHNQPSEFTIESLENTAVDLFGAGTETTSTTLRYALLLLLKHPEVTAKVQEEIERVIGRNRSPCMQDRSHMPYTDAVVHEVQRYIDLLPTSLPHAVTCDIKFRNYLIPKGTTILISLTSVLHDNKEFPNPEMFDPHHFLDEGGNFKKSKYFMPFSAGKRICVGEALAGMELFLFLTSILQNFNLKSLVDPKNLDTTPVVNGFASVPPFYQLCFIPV

COC(=O)N(CC(=O)O)Cc1cc(OCc2nc(-c3ccc(Cl)cc3)oc2C)ccc1F
clearance [1]: 5.9 mL/min/kg | AUC(0-t) at 8 h [2]: 17 µM·h | half-life [3]: 1.8 h | Activity (Mus musculus [4]): 16% | Activity (Salmonella typhimurium): Non-toxic | Activity [5]: -5.4% | Cmax [6]: 22.7 µM | Activity (Syrian golden hamster [7]): 48% | Activity (Syrian golden hamster [8]): 39.8% | half-life [9]: 26.3 h | bioavailability [10]: 66% | Activity (Syrian golden hamster [11]): 74% | half-life [12]: 5.5 h | bioavailability [13]: 59% | Activity (Mus musculus [14]): 747% | Ratio EC50 (HEK293): 1130 | Activity (Syrian golden hamster [15]): Dose-dependent effect | inhibition (Homo sapiens): 14% | Cmax [16]: 14.9 µM | fraction unbound [17]: 0.005 | AUC(0-t) at 8 h [18]: 7.5 µM·h | Cmax [19]: 1.4 µM | IC50 (Cytochrome P450 2C19): > 40 µM | AUC(0-t) at 8 h [20]: 4 µM·h | IC50 (Cytochrome P450 2C9): > 150 µM
